# Test results as given in BindingDB's records for doi:10.1016/S0960-894X(97)00311-9 (n/a, 1997).
# Assay: Inhibition of human platelet aggregation
row,Structure (SMILES),IC50 [µM]
1,CC(C)[C@H](NC(=O)[C@H](CC(=O)O)NC(=O)[C@@H]1CCCN(C(=O)C=Cc2ccc(N=C(N)N)cc2)C1)C(=O)O [(S)-2-[(S)-3-Carboxy-2-({(R)-1-[(E)-3-(4-guanidino-phenyl)-acryloyl]-piperidine-3-carbonyl}-amino)-propionylamino]-3-methyl-butyric acid],0.18
2,CC(C)[C@H](NC(=O)[C@H](CC(=O)O)NC(=O)[C@H]1CCCN(C(=O)C=Cc2ccc(N=C(N)N)cc2)C1)C(=O)O [(S)-2-[(S)-3-Carboxy-2-({(S)-1-[(E)-3-(4-guanidino-phenyl)-acryloyl]-piperidine-3-carbonyl}-amino)-propionylamino]-3-methyl-butyric acid],0.62
3,CC(C)[C@H](NC(=O)[C@H](CC(=O)O)NC(=O)C[C@@H]1CCCN1C(=O)C=Cc1ccc(N=C(N)N)cc1)C(=O)O [(S)-2-[(S)-3-Carboxy-2-(2-{(S)-1-[(E)-3-(4-guanidino-phenyl)-acryloyl]-pyrrolidin-2-yl}-acetylamino)-propionylamino]-3-methyl-butyric acid],0.096
4,CC(C)[C@H](NC(=O)[C@H](CC(=O)O)NC(=O)CNC(=O)C=Cc1ccc(N=C(N)N)cc1)C(=O)O [(S)-2-((S)-3-Carboxy-2-{2-[(E)-3-(4-guanidino-phenyl)-acryloylamino]-acetylamino}-propionylamino)-3-methyl-butyric acid],6.6
5,CCN(CCC(=O)N[C@@H](CC(=O)O)C(=O)N[C@H](C(=O)O)C(C)C)C(=O)C=Cc1ccc(N=C(N)N)cc1 [(S)-2-[(S)-3-Carboxy-2-(3-{ethyl-[(E)-3-(4-guanidino-phenyl)-acryloyl]-amino}-propionylamino)-propionylamino]-3-methyl-butyric acid],0.41

# The remaining lines, values ahead:
row,IC50 [µM],Structure (SMILES)
1,0.065,CC(C)[C@H](NC(=O)[C@H](CC(=O)O)NC(=O)[C@@H]1CCN(C(=O)C=Cc2ccc(N=C(N)N)cc2)C1)C(=O)O [(S)-2-[(S)-3-Carboxy-2-({(R)-1-[(E)-3-(4-guanidino-phenyl)-acryloyl]-pyrrolidine-3-carbonyl}-amino)-propionylamino]-3-methyl-butyric acid]
2,3.3,CC(C)[C@H](NC(=O)[C@H](CC(=O)O)NC(=O)[C@H]1CCN(C(=O)C=Cc2ccc(N=C(N)N)cc2)C1)C(=O)O [(S)-2-[(S)-3-Carboxy-2-({(S)-1-[(E)-3-(4-guanidino-phenyl)-acryloyl]-pyrrolidine-3-carbonyl}-amino)-propionylamino]-3-methyl-butyric acid]
3,2,CC(C)[C@H](NC(=O)[C@H](CC(=O)O)NC(=O)CCNC(=O)C=Cc1ccc(N=C(N)N)cc1)C(=O)O [(S)-2-((S)-3-Carboxy-2-{3-[(E)-3-(4-guanidino-phenyl)-acryloylamino]-propionylamino}-propionylamino)-3-methyl-butyric acid]
4,1.6,CC(C)[C@H](NC(=O)[C@H](CC(=O)O)NC(=O)C[C@@H]1CCCCN1C(=O)C=Cc1ccc(N=C(N)N)cc1)C(=O)O [(S)-2-[(S)-3-Carboxy-2-(2-{(S)-1-[(E)-3-(4-guanidino-phenyl)-acryloyl]-piperidin-2-yl}-acetylamino)-propionylamino]-3-methyl-butyric acid]
5,0.5,CC(C)[C@H](NC(=O)[C@H](CC(=O)O)NC(=O)CCN(C)C(=O)C=Cc1ccc(N=C(N)N)cc1)C(=O)O [(S)-2-[(S)-3-Carboxy-2-(3-{[(E)-3-(4-guanidino-phenyl)-acryloyl]-methyl-amino}-propionylamino)-propionylamino]-3-methyl-butyric acid]
6,25,CC(C)[C@H](NC(=O)[C@H](CC(=O)O)NC(=O)C[C@H]1CCCN1C(=O)C=Cc1ccc(N=C(N)N)cc1)C(=O)O [(S)-2-[(S)-3-Carboxy-2-(2-{(R)-1-[(E)-3-(4-guanidino-phenyl)-acryloyl]-pyrrolidin-2-yl}-acetylamino)-propionylamino]-3-methyl-butyric acid]
